Data from US10302663B2, “Method of assessing pancreatic beta-cell function” (METABOLON, INC., priority 2011, dated 2019).

How the values were obtained:
[1] = system: INS-1e cells; test: Glucose-stimulated insulin release in INS-1e cells; type: cell-based, rat; conditions: INS-1e cells incubated 48 h with physiological concentrations of metabolite, then 3.3, 11, 20 mM glucose or 20 mM glucose+10 mM arginine, FIG. 2
Experimental: Clonal INS-1e cells, derived and selected from a parental rat insulinoma INS-1 cell line (University of Geneva, Geneva, Switzerland), were grown in monolayer culture in RPMI 1640 medium containing 11.1 mM glucose. The culture medium was supplemented with 10% heat-inactivated fetal calf serum, 1 mM sodium pyruvate, 10 mM HEPES, 2 mM glutamine, 50 μmol/liter β-mercaptoethanol, 100 U/ml penicillin, and 100 μg/ml streptomycin. Cells were cultured at 37 C in a humidified 95% air-5% CO2 atmosphere. Cells were seeded onto wells at a density of 1.5×10^5 cells/well at least 96 h before using them in the insulin secretion experiments. Tissue culture reagents were obtained from Life Technologies, Inc. Invitrogen (Basel, Switzerland).
The insulin secretory response to glucose was tested in INS-1e cells. When cells had reached approximately 80% confluence, cells were incubated for 48 h in fresh RPMI 1640 medium containing 11.1 mM glucose, in the presence or absence of different physiological concentrations of metabolites alpha-hydroxybutyrate (2-HB) (Sigma-Aldrich) and linoleoyl-glycerophosphocholine (L-GPC) (Avanti Polar Lipids). Next, cells were maintained for 1 h in glucose-free Krebs-Ringer bicarbonate HEPES buffer containing 135 mm NaCl, 3.6 mm KCl, 5 mm NaHCO3, 0.5 mm Na H2PO4, 0.5 mm MgCl2, 1.5 mm CaCl2, 10 mm HEPES, and BSA 0.1% (glucose-free; pH 7.4; starvation period) and then washed with glucose-free Krebs-Ringer bicarbonate-HEPES buffer and subsequently incubated for […] with Krebs-Ringer bicarbonate-HEPES buffer containing 3.3, 11, 20 mM glucose, or 20 mM glucose+10 mM arginine. At the end of incubation, supernatants were collected to measure insulin concentration (Linco Research, St. Charles, Mo.). Cellular insulin contents were determined in acid-ethanol extracts. The insulin secretory response to glucose was expressed as the ratio of insulin concentration in the supernatant to the cellular insulin content.

[2] = Beta-cell biomarker levels in fasted plasma in response to pioglitazone therapy in IGT subjects; type: in vivo, human; conditions: pioglitazone 45 mg/day, 2.4 years, baseline vs study end
Experimental: In another study, the relationship between changes in the IS/IR Disposition index and changes in the levels of the beta-cell function biomarkers, AHB and LGPC following drug treatment were determined. The study cohort consisted of 431 IGT subjects (FPG=105, 2-h PG [OGTT]=168, HbA1C=5.5%) who were randomized to pioglitazone (45 mg/day) or placebo and followed for 2.4 years. Fasted plasma samples were analyzed at baseline and study end for AHB, LGPC, insulin, HbA1c and Matsuda index.
A method for measuring each of the biomarkers listed in Table 4 in EDTA human plasma was developed. Human plasma samples were spiked with internal standards and subjected to protein precipitation as described below. Following centrifugation, the supernatant was removed and injected onto a Waters Acquity/Thermo Quantum Ultra LC-MS-MS system using four different chromatographic systems (column/mobile phase combinations).

| SMILES | effect on glucose-stimulated insulin release (ratio of insulin in supernatant to cellular insulin content) [1] | effect on glucose-stimulated insulin release (ratio of insulin in supernatant to cellular insulin content) ([1]; listed as 2-hydroxybutyrate) | effect on glucose-stimulated insulin release (ratio of insulin in supernatant to cellular insulin content) ([1]; listed as Linoleoyl-GPC) | Fold change of Linoleoyl-GPC Before and after PIO ([2]; p<0.005) | Fold change of α-HB Before and after PIO ([2]; p=0.001) |
| --- | --- | --- | --- | --- | --- |
| CC[C@H](O)C(=O)O [AHB, 2-hydroxybutyrate] | inhibited the glucose stimulated release of insulin | inhibitory effect | – | – | – |
| CCCCC/C=C\C/C=C\CCCCCCCC(=O)OC[C@@H](O)COP(=O)([O-])OCC[N+](C)(C)C [LGPC, linoleoyl lysophosphatidylcholine] | stimulated the glucose stimulated release of insulin | – | stimulatory effect | – | – |
| CCc1ccc(CCOc2ccc(CC3SC(=O)NC3=O)cc2)nc1 (stereo not drawn) [PIO, pioglitazone] | – | – | – | 1.21 ↑ | 0.90 ↓ |
